Source: article PMC10510381, “Alkyne as a Latent Warhead to Covalently Target SARS-CoV-2 Main Protease” (Journal of Medicinal Chemistry, 2023)
Several values for one entry are separate records, joined by “and”; a condition that tells them apart may be missing. Equal entries are not always repeated. Entries after “also recorded” stand apart in the source; their conditions may differ. Where two headings read alike, the source gives them in different places. Residues, ends and D or L forms follow the SMILES beside them. *: point of attachment. Cbz = O=C(OCc1ccccc1)*

Legend:
[1] = target: M^pro expressed in HEK293T cells (Severe acute respiratory syndrome coronavirus 2, UniProt P0DTD1); type: cell-based; details: HEK293T transiently transfected with M^pro
HEK293T proteome = assay: Proteomic labeling of parental HEK293T cells (in-gel fluorescence); type: cell-based, human
recombinant M^pro = recombinant M^pro (Severe acute respiratory syndrome coronavirus 2, UniProt P0DTD1); type: binding
HeLa proteome = type: cell-based, human
SARS-CoV-2 M^pro = SARS-CoV-2 M^pro (Severe acute respiratory syndrome coronavirus 2, UniProt P0DTD1); assay: biochemical; details: for inhibition against M^pro: up to 80 μM
SARS-CoV-2 = type: cell-based
[2] = 15-min treatment of M^pro (0.5 μM), FRET substrate 20 μM, both duplicate values given, read-out: IC50
[3] = 15-min pre-incubation, read-out: IC50 (average of duplicate)

`C#CC[C@H](NC(=O)C(F)(F)F)C(=O)N1C[C@H]2[C@@H]([C@H]1C(=O)N[C@H](C#C)C[C@@H]1CCNC1=O)C2(C)C` [Alk-4d, O=C1NCC[C@H]1C[C@@H](C#C)NC([C@H]2N(C([C@@H](NC(C(F)(F)F)=O)CC#C)=O)C[C@H]3[C@@H]2C3(C)C)=O] was tested, and the “labeling of M^pro in live cells” value [1] was “dose-dependent labeling”, the “proteome labeling, HEK293T cells” value (HEK293T proteome; 1 hour, up to 30 μM) was “little labeling; also recorded: did not label any proteins” and the “proteome labeling, HEK293T cells” value (HEK293T proteome; 5 h, all tested concentrations) was “little proteome labeling”. The “probe concentration for efficient labeling of M^pro” value (recombinant M^pro; 1 h treatment) was “above 1 μM”, the “probe concentration reaching saturation of M^pro labeling” value (recombinant M^pro; 1 h treatment) was 3 µM and the “proteome labeling, HeLa cells” value (HeLa proteome) was “little labeling”.
In the case of `C#CC[C@H](NC(=O)C(F)(F)F)C(=O)N1C[C@H]2[C@@H]([C@H]1C(=O)N[C@H](C#CC(F)(F)F)C[C@@H]1CCNC1=O)C2(C)C` [Alk-4i, O=C1NCC[C@H]1C[C@@H](C#CC(F)(F)F)NC([C@H]2N(C([C@@H](NC(C(F)(F)F)=O)CC#C)=O)C[C@H]3[C@@H]2C3(C)C)=O], the “proteome labeling, HEK293T cells” value (HEK293T proteome; 5 h, 10 μM) is reported as “significant labeling”, the “lowest concentration tested, giving intense labeling of M^pro” value (recombinant M^pro) is reported as 300 nM and the “incubation time to label M^pro near saturation” value (recombinant M^pro; time-course) is reported as 5 min.
For `CC(C)C[C@H](NC(=O)OCc1ccccc1)C(=O)N[C@H](/C=C/C(=O)OCc1ccccc1)CCC(N)=O` [Compound 1a, O=C(N[C@@H](CCC(N)=O)/C=C/C(OCC1=CC=CC=C1)=O)[C@H](CC(C)C)NC(OCC2=CC=CC=C2)=O], the IC50 (SARS-CoV-2 M^pro; [2]) was 2.5 µM and 3.9 µM.
With `CC(C)C[C@H](NC(=O)OCc1ccccc1)C(=O)N[C@H](/C=C/S(C)(=O)=O)CCC(N)=O` [Compound 1b, O=C(N[C@@H](CCC(N)=O)/C=C/S(C)(=O)=O)[C@H](CC(C)C)NC(OCC1=CC=CC=C1)=O] the IC50 (SARS-CoV-2 M^pro; [2]) was 12 µM and 18 µM.
For `CNS(=O)(=O)/C=C/[C@H](CCC(N)=O)NC(=O)[C@H](CC(C)C)NC(=O)OCc1ccccc1` [Compound 1c, O=C(N[C@@H](CCC(N)=O)/C=C/S(=O)(NC)=O)[C@H](CC(C)C)NC(OCC1=CC=CC=C1)=O], the IC50 (SARS-CoV-2 M^pro; [3]) was 47 µM and the IC50 (SARS-CoV-2 M^pro; [2]) was 39 µM and 55 µM.
`C#C[C@H](CCC(N)=O)NC(=O)[C@H](CC(C)C)NC(=O)OCc1ccccc1` [Compound 1d, O=C(N[C@@H](CCC(N)=O)C#C)[C@H](CC(C)C)NC(OCC1=CC=CC=C1)=O] was tested, and the IC50 (SARS-CoV-2 M^pro; [2]) was 35 µM and 60 µM.
With `CC(C)C[C@H](NC(=O)OCc1ccccc1)C(=O)N[C@H](C=O)CCC(N)=O` [Compound 1e, O=C(N[C@@H](CCC(N)=O)C([H])=O)[C@H](CC(C)C)NC(OCC1=CC=CC=C1)=O] (Cbz-Leu-Gln-aldehyde) the IC50 (SARS-CoV-2 M^pro; [2]) was over 80 µM and the “inhibition against M^pro” value (SARS-CoV-2 M^pro) was “failed to cause significant inhibition”.
For `CC(C)C[C@H](NC(=O)OCc1ccccc1)C(=O)N[C@@H](CCC(N)=O)C(=O)C(=O)NCc1ccccc1` [Compound 1f, O=C(N[C@@H](CCC(N)=O)C(C(NCC1=CC=CC=C1)=O)=O)[C@H](CC(C)C)NC(OCC2=CC=CC=C2)=O], the IC50 (SARS-CoV-2 M^pro; [2]) was over 80 µM and the “inhibition against M^pro” value (SARS-CoV-2 M^pro) was “failed to cause significant inhibition”.
`CC(C)C[C@H](NC(=O)OCc1ccccc1)C(=O)N[C@H](C#N)CCC(N)=O` [Compound 1g, O=C(N[C@@H](CCC(N)=O)C#N)[C@H](CC(C)C)NC(OCC1=CC=CC=C1)=O] was tested, and the IC50 (SARS-CoV-2 M^pro; [2]) was over 80 µM and the “inhibition against M^pro” value (SARS-CoV-2 M^pro) was “failed to cause significant inhibition”.
`C#C[C@H](CCC(N)=O)NC(=O)[C@H](CC(C)C)NC(=O)c1cc2c(OC)cccc2[nH]1` [Compound 2d, O=C(N[C@@H](CCC(N)=O)C#C)[C@H](CC(C)C)NC(C1=CC2=C(C=CC=C2OC)N1)=O] gave an IC50 (SARS-CoV-2 M^pro; 15-min pre-incubation, both duplicate values given, read-out: IC50 uM (15-min pre-incubation)) of 22 µM and an IC50 (SARS-CoV-2 M^pro; [2]) of 22 µM.
`COc1cccc2[nH]c(C(=O)N[C@@H](CC(C)C)C(=O)N[C@H](C#N)CCC(N)=O)cc12` [Compound 2g, O=C(N[C@@H](CCC(N)=O)C#N)[C@H](CC(C)C)NC(C1=CC2=C(C=CC=C2OC)N1)=O] was tested, and the IC50 (SARS-CoV-2 M^pro; [2]) was 29 µM and 30 µM.
`C#C[C@H](C[C@@H]1CCNC1=O)NC(=O)[C@H](CC(C)C)NC(=O)c1cc2c(OC)cccc2[nH]1` [Compound 3d, O=C(N[C@@H](C[C@H]1C(NCC1)=O)C#C)[C@H](CC(C)C)NC(C2=CC3=C(C=CC=C3OC)N2)=O] was tested, and the IC50 (SARS-CoV-2 M^pro; [3]) was about 7 µM and the IC50 (SARS-CoV-2 M^pro; [2]) was 10 µM and 4.4 µM.
For `CC(C)(C)[C@H](NC(=O)C(F)(F)F)C(=O)N1C[C@H]2[C@@H]([C@H]1C(=O)N[C@H](C=O)C[C@@H]1CCNC1=O)C2(C)C` [Compound 4e, O=C1NCC[C@H]1C[C@@H](C([H])=O)NC([C@H]2N(C([C@@H](NC(C(F)(F)F)=O)C(C)(C)C)=O)C[C@H]3[C@@H]2C3(C)C)=O], the IC50 (SARS-CoV-2 M^pro; [2]) was 0.29 µM and 0.3 µM.
In the case of `CC(C)(C)[C@H](NC(=O)C(F)(F)F)C(=O)N1C[C@H]2[C@@H]([C@H]1C(=O)N[C@H](C#N)C[C@@H]1CCNC1=O)C2(C)C` [Compound 4g, nirmatrelvir, reference compound], the cytotoxicity (Hela-ACE2 cells; up to the highest concentration tested, 10 μM, 20 h) is reported as “no notable cytotoxicity”.
For `CC(C)(C)[C@H](NC(=O)C(F)(F)F)C(=O)N1C[C@H]2[C@@H]([C@H]1C(=O)N[C@@H](C[C@@H]1CCNC1=O)C(N)=O)C2(C)C` [Compound 4h, O=C1NCC[C@H]1C[C@@H](C(N)=O)NC([C@H]2N(C([C@@H](NC(C(F)(F)F)=O)C(C)(C)C)=O)C[C@H]3[C@@H]2C3(C)C)=O], the IC50 (SARS-CoV-2 M^pro; [2]) was over 80 µM.
For `CC(C)(C)[C@H](NC(=O)C(F)(F)F)C(=O)N1C[C@H]2[C@@H]([C@H]1C(=O)N[C@H](C#CC(F)(F)F)C[C@@H]1CCNC1=O)C2(C)C` [Compound 4i, O=C1NCC[C@H]1C[C@@H](C#CC(F)(F)F)NC([C@H]2N(C([C@@H](NC(C(F)(F)F)=O)C(C)(C)C)=O)C[C@H]3[C@@H]2C3(C)C)=O], the cytotoxicity (Hela-ACE2 cells) was “no notable cytotoxicity”, the “concentration sufficient to abolish labeling of M^pro” value (recombinant M^pro; competition with 10 μM Alk-4d) was 1 µM and the antiviral activity (SARS-CoV-2) was “strong, dose-dependent antiviral activity”. The anti-COVID activity (SARS-CoV-2; sub-micromolar concentrations, HeLa-ACE2, 24 h) was “significant anti-COVID activity”.
